SMILES strings stand for the structures. Some results are limits rather than exact numbers.

For the assay, the system named is MMP1 expression by activated synovial fibroblasts (RASFs). Kind of assay: 'MMP assay': complex trigger-induced MMP1 expression by synovial fibroblasts (MMP1 ELISA). The assay is classed as cell-based. The conditions noted are these: Homo sapiens, Fibroblast; RASFs, complex trigger, 48 hrs; read-out: MMP1 IC50. On the procedure: A 384-well format ELISA for measurement of MMP1 is developed. Various primary antibodies are tested, as well as various ELISA protocols. The following protocol is developed and validated to measure MMP1 levels in SF supernatant in 384 well plates: white Lumitrac 600 384 well plates (Greiner) are coated with 2 μg/mL anti-MMP1 antibody MAB1346 (Chemicon). The antibody is diluted in buffer 40 (1.21 g Tris base (Sigma), 0.58 g NaCl (Calbiochem) and 5 ml 10% NaN3 (Sigma) in 1 L milliQ water and adjusted to pH 8.5). After overnight incubation at 4° C., plates are washed with PBS (80 g NaCl, 2 g KCl (Sigma), 11.5 g Na2HPO4.7H2O and 2 g KH2PO4 in 10 L milliQ; pH 7.4) and blocked with 100 μL/well Casein buffer (2% Casein (VWR International) in PBS). Next day, casein buffer is removed from ELISA plates and replaced by 50 μL/well EC buffer (4 g casein, 2.13 g Na2HPO4 (Sigma), 2 g bovine albumin (Sigma), 0.69 g NaH2PO4.H2O (Sigma), 0.5 g CHAPS (Roche), 23.3 g NaCl, 4 ml 0,5 M EDTA pH 8 (Invitrogen), 5 ml 10% NaN3 in 1 L milliQ and adjusted to pH 7.0). 0.25 mM DTT (Sigma) is added to the thawed samples plates. After removal of the EC buffer, 20 μL of sample is transferred to the ELISA plates. After overnight incubation at 4° C. plates are washed twice with PBS and once with PBST (PBS with 0.05% Tween-20 (Sigma)) and incubated with 35 μL/well biotinylated anti-MMP1 antibody solution (R&D). This secondary antibody is diluted in buffer C (0.82 g NaH2PO4.H2O, 4.82 g Na2HPO4, 46.6 g NaCl, 20 g bovine albumin and 4 mL 0,5M EDTA pH 8 in 2 L milliQ and adjusted to pH 7.0) at a concentration of 5 μg/mL. After 2 h of incubation at RT, plates are washed as described above and incubated with 50 μL/well streptavidin-HRP conjugate (Biosource). Streptavidin-HRP conjugate is diluted in buffer C at a concentration of 0.25 μg/mL. After 45 min, plates are washed as described above and incubated for 5 min with 50 μL/well BM Chem ELISA Substrate (Roche). Readout is performed on the Luminoscan Ascent Luminometer (Labsystems) with an integration time of 200 msec or with an Envision reader (Perkin Elmer).
The increase of MMP1 expression by SFs upon treatment with cytokines relevant in the field of RA (TNF-α, IL1β and OSM) or a combination thereof is shown in FIG. 2 as white bars. For this experiment, SFs are seeded in 96 well plates, 3,000 cells/well. 24 h later, the medium is changed to M199 medium supplemented with 1% FBS. One day after the medium change, cytokines or combinations thereof are added to the cultures, each cytokine being added to a final concentration of 25 ng/mL. 72 h after cytokine addition, the supernatant is collected and processed in the MMP1 ELISA as described in the protocol given above. In parallel with this experiment, SFs are triggered, using the same protocol, with the supernatant of THP1 cells (2-fold diluted in M199+1% FBS) treated with the same cytokines or combinations of cytokines for 48 h in M199 medium+1% FBS. The induction of the MMP1 expression by SFs triggered with the supernatants of TNF-α-treated THP1 cells is stronger (>4.5 fold induction) as compared to the SFs triggered with recombinant TNF-α alone (3-fold induction) and almost equals the 5-fold induction obtained by a mixture of 3 purified cytokines (TNF-α, IL1βb, OSM). […] As the role of TNF-α in the RA pathogenesis is validated (TNF-α-blockers such as Infliximab and Etanercept show some efficacy in the treatment of RA patients) and the THP-1 cells are representative for monocytes/macrophages present in the joint of RA patients, the TNF-α-based trigger mixture prepared by contacting THP-1 cells with TNF-α will contain factors present in the joints of RA patients and subsequently is relevant to RA. This TNF-α-based complex trigger, further referred to as the ‘complex trigger’, will further be used as basis for the ‘MMP assay’. […]
(An ELISA detects its analyte on a solid surface through an enzyme-linked reagent.)
Consider `CC(C)N1C[C@@H]2C[C@H]1CN2c1ccc(Nc2ncc(-c3ccc4c(c3)CNC4=O)n3ncnc23)cc1` [Compound 1, 5-{8-[4-((1S,4S)-5-Isopropyl-2,5-diaza-bicyclo[2.2.1]hept-2-yl)-phenylamino]-[1,2,4]triazolo[1,5-a]pyrazin-5-yl}-2,3-dihydro-isoindol-1-one], for which the half-inhibitory concentration (IC50) is above 1 µM.
The figure for `CC(C)N1C[C@@H]2C[C@H]1CN2c1ccc(Nc2ncc(-c3coc(C(N)=O)c3)n3ncnc23)cc1` [Compound 2, 4-{8-[4-((1S,4S)-5-Isopropyl-2,5-diaza-bicyclo[2.2.1]hept-2-yl)-phenylamino]-[1,2,4]triazolo[1,5-a]pyrazin-5-yl}-furan-2-carboxamide] is 0.001 to 1 µM.
The figure for `CC(C)(C)N1C[C@@H]2C[C@H]1CN2c1ccc(Nc2ncc(-c3coc(C(N)=O)c3)n3ncnc23)cc1` [Compound 3, 4-{8-[4-((1S,4S)-5-tert-Butyl-2,5-diaza-bicyclo[2.2.1]hept-2-yl)-phenylamino]-[1,2,4]triazolo[1,5-a]pyrazin-5-yl}-furan-2-carboxamide] is above 1 µM.
The figure for `CC(C)N1C[C@@H]2C[C@H]1CN2c1ccc(Nc2ncc(-c3coc(C(N)=O)c3)n3ccnc23)cc1` [Compound 4, 4-{8-[4-((1S,4S)-5-Isopropyl-2,5-diaza-bicyclo[2.2.1]hept-2-yl)-phenylamino]-imidazo[1,2-a]pyrazin-5-yl}-furan-2-carboxamide] is above 1 µM; for `CC(C)N1C[C@@H]2C[C@H]1CN2c1ccc(Nc2ncc(-c3cc(C(N)=O)n[nH]3)n3ncnc23)cc1` [Compound 5, 5-{8-(4-((1S,4S)-5-isopropyl-2,5-diazabicyclo[2.2.1]heptan-2-yl)phenyl-amino)-[1,2,4]triazolo[1,5-a]pyrazin-5-yl}-1H-pyrazole-3-carboxamide] it is 0.001 to 1 µM; for `CC(C)(C)N1C[C@@H]2C[C@H]1CN2c1ccc(Nc2ncc(-c3coc(C(N)=O)c3)n3ccnc23)cc1` [Compound 6] it is above 1 µM.
On to `CC(C)N1C[C@@H]2C[C@H]1CN2c1ccc(Nc2ncc(-c3cc[nH]c(=O)c3)n3ccnc23)cc1` [Compound 8, 4-{8-(4-((1S,4S)-5-isopropyl-2,5-diazabicyclo[2.2.1]heptan-2-yl)phenyl-amino)imidazo[1,2-a]pyrazin-5-yl}-1H-pyridin-2-one], for which the IC50 lay in the range of 0.001 to 1 µM.
For the compound `CC(C)N1CC2CCC1CN2c1ccc(Nc2ncc(-c3coc(C(N)=O)c3)n3ncnc23)cc1` (centres unmarked) [Compound 9, 4-{8-(4-(5-isopropyl-2,5-diazabicyclo[2.2.2]octan-2-yl)phenylamino)[1,2,4]-triazolo[1,5-a]pyrazin-5-yl}-furan-2-carboxamide], the IC50 was 0.001 to 1 µM.
For `CC(C)N1CC2CCC(C1)N2c1ccc(Nc2ncc(-c3coc(C(N)=O)c3)n3ccnc23)cc1` [Compound 11, 4-{8-(4-(3-isopropyl-3,8-diazabicyclo[3.2.1]octan-8-yl)phenylamino)-imidazo[1,2-a]pyrazin-5-yl}-furan-2-carboxamide], the 50% inhibitory concentration (IC50) was above 1 µM.
The result for `CC(C)N1C2CCC1CN(c1ccc(Nc3ncc(-c4coc(C(N)=O)c4)n4ncnc34)cc1)C2` [Compound 12, 4-{8-(4-(8-isopropyl-3,8-diazabicyclo[3.2.1]octan-3-yl)phenylamino)[1,2,4]-triazolo[1,5-a]pyrazin-5-yl}-furan-2-carboxamide] reads above 1 µM.
With `CC(C)N1C[C@@H]2C[C@H]1CN2c1ccc(Nc2ncc(-c3cc(C(N)=O)n[nH]3)n3ncnc23)cn1` [Compound 15, 5-{8-(6-((1S,4S)-5-isopropyl-2,5-diazabicyclo[2.2.1]heptan-2-yl)pyridin-3-ylamino)-[1,2,4]triazolo[1,5-a]pyrazin-5-yl}-1H-pyrazole-3-carboxylic acid amide], the IC50 is above 1 µM.
In the case of `CC(C)(C)N1C[C@@H]2C[C@H]1CN2c1ccc(Nc2ncc(-c3ccc4c(c3)CNC4=O)n3ncnc23)cc1` [Compound 16, 5-{8-(4-((1S,4S)-5-tert-butyl-2,5-diazabicyclo[2.2.1]heptan-2-yl)phenylamino)-[1,2,4]triazolo-[1,5-a]pyrazin-5-yl}-2,3-dihydro-isoindol-1-one], the IC50 is above 1 µM.
The result for `CC(C)(C)N1C[C@@H]2C[C@H]1CN2c1ccc(Nc2ncc(-c3cc(C(N)=O)n[nH]3)n3ncnc23)cc1` [Compound 17, 5-{8-(4-((1S,4S)-5-tert-butyl-2,5-diazabicyclo[2.2.1]heptan-2-yl)phenyl-amino)-[1,2,4]triazolo[1,5-a]pyrazin-5-yl}-1H-pyrazole-3-carboxylic acid amide] reads above 1 µM; that for `CC(C)N1C[C@@H]2C[C@H]1CN2c1ccc(Nc2ncc(-c3ccc4c(c3)CNC4=O)n3ncnc23)cn1` [Compound 18, 5-{8-(6-((1S,4S)-5-isopropyl-2,5-diazabicyclo[2.2.1]heptan-2-yl)pyridin-3-ylamino)-[1,2,4]triazolo[1,5-a]pyrazin-5-yl}-2,3-dihydro-isoindol-1-one], above 1 µM.
The figure for `CCOc1cc(-c2cnc(Nc3ccc(N4C[C@@H]5C[C@H]4CN5C(C)C)cc3)c3ncnn23)ccn1` [Compound 19, 5-(2-ethoxypyridin-4-yl)-N-(4-((1S,4S)-5-isopropyl-2,5-diazabicyclo[2.2.1]heptan-2-yl)phenyl)-[1,2,4]triazolo[1,5-a]pyrazin-8-amine] is above 1 µM.
The figure for `CC(C)N1C[C@@H]2C[C@H]1CN2c1ccc(Nc2ncc(-c3cc[nH]c(=O)c3)n3ncnc23)cc1` [Compound 20, 4-(8-(4-((1S,4S)-5-isopropyl-2,5-diazabicyclo[2.2.1]heptan-2-yl)phenylamino)-[1,2,4]triazolo[1,5-a]pyrazin-5-yl)pyridin-2(1H)-one] is above 1 µM; for `CCOC(=O)c1cc(-c2cnc(Nc3ccc(N4C[C@@H]5C[C@H]4CN5C(C)C)cc3)c3ncnn23)[nH]n1` [Compound 21, Ethyl 5-(8-(4-((1S,4S)-5-isopropyl-2,5-diazabicyclo[2.2.1]heptan-2-yl)phenylamino)-[1,2,4]triazolo[1,5-a]pyrazin-5-yl)-1H-pyrazole-3-carboxylate] it is above 1 µM; for `CCOc1cc(-c2cnc(Nc3ccc(N4C[C@@H]5C[C@H]4CN5C(C)C)cc3)c3nccn23)ccn1` [Compound 22, 5-(2-ethoxypyridin-4-yl)-N-(4-((1S,4S)-5-isopropyl-2,5-diazabicyclo[2.2.1]heptan-2-yl)phenyl)imidazo[1,2-a]pyrazin-8-amine] it is above 1 µM.
With `CC(C)N1C[C@@H]2C[C@H]1CN2c1ccc(Nc2ncc(-c3noc(C(N)=O)n3)n3ncnc23)cc1` [Compound 23, 3-(8-(4-((1S,4S)-5-isopropyl-2,5-diazabicyclo[2.2.1]heptan-2-yl)phenylamino)-[1,2,4]triazolo[1,5-a]pyrazin-5-yl)-1,2,4-oxadiazole-5-carboxamide], the IC50 is above 1 µM.
The result for `CC(C)N1C[C@@H]2C[C@H]1CN2c1cccc(Nc2ncc(-c3coc(C(N)=O)c3)n3ncnc23)c1` [Compound 24, 4-(8-(3-((1S,4S)-5-isopropyl-2,5-diazabicyclo[2.2.1]heptan-2-yl)phenylamino)-[1,2,4]triazolo[1,5-a]pyrazin-5-yl)furan-2-carboxamide] reads above 1 µM.

The IC50 is the concentration at which inhibition is half-maximal.

Source of the values: patent US8012983B2, “Substituted triazolopyrazines useful for the treatment of degenerative and inflammatory diseases” (Galapagos NV, priority 2008, dated 2011).
